9 molecules from ChEMBL document CHEMBL1201862, “PubChem BioAssay data set” (2004) can be followed below.

In one test the target is T1, Protein skinhead-1 (Caenorhabditis elegans, UniProt P34707).
T1 sequence (P34707 whole entry): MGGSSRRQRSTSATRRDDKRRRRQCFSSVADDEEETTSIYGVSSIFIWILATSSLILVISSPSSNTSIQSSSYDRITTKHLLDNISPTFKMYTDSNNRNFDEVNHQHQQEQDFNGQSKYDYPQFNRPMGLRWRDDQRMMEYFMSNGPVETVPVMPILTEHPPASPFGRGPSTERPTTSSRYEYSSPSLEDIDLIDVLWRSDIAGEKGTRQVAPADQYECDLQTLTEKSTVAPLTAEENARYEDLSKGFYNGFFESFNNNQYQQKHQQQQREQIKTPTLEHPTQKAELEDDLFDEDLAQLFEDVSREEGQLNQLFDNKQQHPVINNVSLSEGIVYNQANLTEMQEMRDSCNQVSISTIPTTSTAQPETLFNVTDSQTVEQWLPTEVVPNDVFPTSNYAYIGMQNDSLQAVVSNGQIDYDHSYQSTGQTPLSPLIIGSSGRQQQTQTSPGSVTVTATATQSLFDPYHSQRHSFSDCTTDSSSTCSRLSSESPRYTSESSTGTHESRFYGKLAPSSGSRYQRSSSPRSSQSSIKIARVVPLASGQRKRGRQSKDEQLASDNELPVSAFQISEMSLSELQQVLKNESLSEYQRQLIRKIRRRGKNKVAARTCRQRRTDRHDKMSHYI
The test is classed as functional.

The test system of the next test is HeLa. Briefly: HeLa cell cytotoxicity, dose response, cytotoxicity control for MITF activator project, CellTiter-Glo luminescence, cherry-pick samples (AID 540259). To be noted: Homo sapiens. In kind it is functional, cell-based. For orientation: ATP-based viability assays read luminescence as a measure of living cells.
The subject of a further test is Escherichia coli. Briefly: microbe, parasite or virus in culture.
Test [1] has as its target T2, Tyrosine-protein phosphatase non-receptor type 7 (Homo sapiens, UniProt P35236).
T2 sequence (P35236 whole entry): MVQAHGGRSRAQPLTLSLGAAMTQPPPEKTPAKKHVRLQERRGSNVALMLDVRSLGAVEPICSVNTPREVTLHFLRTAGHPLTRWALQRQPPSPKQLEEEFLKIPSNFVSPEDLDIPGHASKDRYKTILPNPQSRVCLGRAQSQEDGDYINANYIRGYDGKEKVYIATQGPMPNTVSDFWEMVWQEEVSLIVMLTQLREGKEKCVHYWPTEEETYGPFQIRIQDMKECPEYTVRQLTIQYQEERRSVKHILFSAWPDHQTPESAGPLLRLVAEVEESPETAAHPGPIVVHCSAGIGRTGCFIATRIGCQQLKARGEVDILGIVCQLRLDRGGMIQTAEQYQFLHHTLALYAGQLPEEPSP
The test is classed as functional.

In test [2] the target is Glyceraldehyde-3-phosphate dehydrogenase (Homo sapiens, UniProt P04406).
Sequence of Glyceraldehyde-3-phosphate dehydrogenase (P04406 whole entry): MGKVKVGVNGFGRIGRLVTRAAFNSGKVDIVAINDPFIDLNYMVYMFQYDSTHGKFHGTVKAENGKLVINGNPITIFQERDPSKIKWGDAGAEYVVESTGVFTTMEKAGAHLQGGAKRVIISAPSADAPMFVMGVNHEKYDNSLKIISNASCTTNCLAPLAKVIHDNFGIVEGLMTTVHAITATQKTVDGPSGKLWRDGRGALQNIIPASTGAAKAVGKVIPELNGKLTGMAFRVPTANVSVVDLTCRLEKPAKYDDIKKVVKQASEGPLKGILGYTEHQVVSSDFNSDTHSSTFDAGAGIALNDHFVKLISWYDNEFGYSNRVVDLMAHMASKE
In test [3] the target is T3, Dual specificity protein phosphatase 6 (Rattus norvegicus, UniProt Q64346).
T3 sequence (Q64346 whole entry): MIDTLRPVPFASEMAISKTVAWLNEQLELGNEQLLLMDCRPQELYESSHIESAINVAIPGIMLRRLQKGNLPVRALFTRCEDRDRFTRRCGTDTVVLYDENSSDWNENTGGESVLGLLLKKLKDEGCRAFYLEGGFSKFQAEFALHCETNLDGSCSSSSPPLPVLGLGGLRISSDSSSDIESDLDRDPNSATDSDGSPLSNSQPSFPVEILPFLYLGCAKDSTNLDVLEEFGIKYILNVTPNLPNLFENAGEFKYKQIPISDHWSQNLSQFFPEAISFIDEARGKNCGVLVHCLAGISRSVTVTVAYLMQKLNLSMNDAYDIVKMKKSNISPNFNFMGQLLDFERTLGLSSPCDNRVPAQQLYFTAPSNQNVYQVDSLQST
The test is classed as functional.

Test [4] deals with T3, Dual specificity protein phosphatase 6.
Test [5] is described as follows: non-specific cell cytotoxicity, dose response, cytotoxicity control for PAX8 inhibitor project, plate reader, dry powder samples (AID 743021). In kind it is functional, cell-based.
The target of test [6] is Delta-type opioid receptor (Homo sapiens, UniProt P41143). Briefly: Counterscreen for agonists of heterodimerization of the mu 1 (OPRM1) and delta 1 (OPRD1) opioid receptors: Luminescence-based cell-based high throughput dose response assay to identify agonists of OPRD1 homodimerization. [Related pubchem assays (depositor defined):AID504326, AID504355, AID504692, AID504904, AID504905]. In kind it is functional. For orientation: Counterscreens check selectivity or assay interference.
Sequence of Delta-type opioid receptor (P41143 whole entry): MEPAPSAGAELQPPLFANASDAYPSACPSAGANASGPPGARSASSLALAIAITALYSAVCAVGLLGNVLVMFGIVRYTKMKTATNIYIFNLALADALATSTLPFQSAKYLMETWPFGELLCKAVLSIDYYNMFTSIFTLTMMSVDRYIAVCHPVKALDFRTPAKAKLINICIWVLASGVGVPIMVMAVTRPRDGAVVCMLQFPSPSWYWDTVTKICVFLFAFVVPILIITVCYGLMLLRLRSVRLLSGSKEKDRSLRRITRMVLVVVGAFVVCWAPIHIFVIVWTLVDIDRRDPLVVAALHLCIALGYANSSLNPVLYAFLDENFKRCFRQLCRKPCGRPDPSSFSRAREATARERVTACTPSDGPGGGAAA

Another test addresses Mu-type opioid receptor (Homo sapiens, UniProt P35372). Briefly: Counterscreen for agonists of heterodimerization of the mu 1 (OPRM1) and delta 1 (OPRD1) opioid receptors: Luminescence-based cell-based high throughput dose response assay to identify agonists of OPRM1 homodimerization. The test is classed as functional.
In test [7] the target is 5-hydroxytryptamine receptor 5A (Homo sapiens, UniProt P47898). Briefly: Counterscreen for agonists of OPRM1-OPRD1 heterodimerization: luminescence-based cell-based high throughput dose response assay to identify agonists of 5-hydroxytryptamine (serotonin) 5A receptor (HTR5A). [Related pubchem assays (depositor defined):AID504326, AID504355, AID504692, AID504904, AID504905]. In kind it is functional.
Sequence of 5-hydroxytryptamine receptor 5A (P47898 whole entry): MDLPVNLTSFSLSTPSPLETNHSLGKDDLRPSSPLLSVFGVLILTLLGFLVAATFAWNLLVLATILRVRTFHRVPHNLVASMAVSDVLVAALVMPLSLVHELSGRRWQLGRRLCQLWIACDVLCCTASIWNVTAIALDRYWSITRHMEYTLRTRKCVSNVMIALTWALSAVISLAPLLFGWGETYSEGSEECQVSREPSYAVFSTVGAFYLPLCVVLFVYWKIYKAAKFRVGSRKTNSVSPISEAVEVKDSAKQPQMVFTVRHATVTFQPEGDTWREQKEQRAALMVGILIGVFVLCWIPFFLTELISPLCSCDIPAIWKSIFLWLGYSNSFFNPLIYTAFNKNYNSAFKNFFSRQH

The target of test [8] is T4, Neuropeptides B/W receptor type 1 (Homo sapiens, UniProt P48145).
T4 sequence (P48145 whole entry): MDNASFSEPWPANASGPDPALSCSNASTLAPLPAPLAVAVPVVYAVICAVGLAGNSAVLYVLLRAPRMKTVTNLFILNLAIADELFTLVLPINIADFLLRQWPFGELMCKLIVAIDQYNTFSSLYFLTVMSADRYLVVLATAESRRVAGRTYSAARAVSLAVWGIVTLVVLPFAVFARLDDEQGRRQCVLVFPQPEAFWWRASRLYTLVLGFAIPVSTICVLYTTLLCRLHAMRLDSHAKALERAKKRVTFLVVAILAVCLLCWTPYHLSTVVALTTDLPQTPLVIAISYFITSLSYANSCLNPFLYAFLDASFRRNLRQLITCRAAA
Briefly: Fluorescence-based dose response cell-based high throughput screening assay to identify antagonists of the G-protein coupled receptor 7 (GPR7). [Related pubchem assays: 1952 (Screening assay (GPR7 antagonists).), 1880 (Summary AID.)]. In kind it is functional.

A further test concerns the target T5, Hexokinase-1 (Homo sapiens, UniProt P19367).
T5 sequence (P19367 whole entry): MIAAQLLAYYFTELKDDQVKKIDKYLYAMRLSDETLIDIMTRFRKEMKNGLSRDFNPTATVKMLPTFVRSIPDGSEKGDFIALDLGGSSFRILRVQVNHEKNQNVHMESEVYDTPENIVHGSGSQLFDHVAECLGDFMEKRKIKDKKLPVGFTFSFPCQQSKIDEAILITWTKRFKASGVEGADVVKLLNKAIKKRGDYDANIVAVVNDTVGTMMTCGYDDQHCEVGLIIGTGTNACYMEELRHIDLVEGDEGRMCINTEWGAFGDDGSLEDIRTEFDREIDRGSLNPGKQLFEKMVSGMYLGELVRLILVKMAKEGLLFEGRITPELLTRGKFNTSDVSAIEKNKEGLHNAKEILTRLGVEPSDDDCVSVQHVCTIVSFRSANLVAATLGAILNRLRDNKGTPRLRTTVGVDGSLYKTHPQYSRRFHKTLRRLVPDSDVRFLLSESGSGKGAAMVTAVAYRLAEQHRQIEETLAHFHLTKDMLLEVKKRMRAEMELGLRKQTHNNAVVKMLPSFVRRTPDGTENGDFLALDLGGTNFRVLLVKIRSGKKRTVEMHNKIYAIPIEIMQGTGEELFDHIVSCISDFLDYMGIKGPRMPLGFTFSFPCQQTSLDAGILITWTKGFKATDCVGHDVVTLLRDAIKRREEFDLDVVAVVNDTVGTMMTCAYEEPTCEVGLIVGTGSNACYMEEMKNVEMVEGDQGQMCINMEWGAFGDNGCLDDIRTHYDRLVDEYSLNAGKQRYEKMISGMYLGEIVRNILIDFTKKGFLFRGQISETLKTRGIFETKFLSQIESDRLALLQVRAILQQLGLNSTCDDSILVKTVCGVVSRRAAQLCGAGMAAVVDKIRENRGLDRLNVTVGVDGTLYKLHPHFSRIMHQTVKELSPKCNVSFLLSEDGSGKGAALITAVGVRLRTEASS
Briefly: HK1 enzyme inhibition by HKDC1 hits, SAR follow-up, selectivity assay for HKDC1 inhibitor project, biochemical, set 2, resazurin fluorescence coupled readout (AID 588356). In kind it is functional. (In general: The colour change of resazurin is a common sign of viable cells or microbes.)

The next test concerns the target T6, Hexokinase HKDC1 (Homo sapiens, UniProt Q2TB90).
T6 sequence (Q2TB90 whole entry): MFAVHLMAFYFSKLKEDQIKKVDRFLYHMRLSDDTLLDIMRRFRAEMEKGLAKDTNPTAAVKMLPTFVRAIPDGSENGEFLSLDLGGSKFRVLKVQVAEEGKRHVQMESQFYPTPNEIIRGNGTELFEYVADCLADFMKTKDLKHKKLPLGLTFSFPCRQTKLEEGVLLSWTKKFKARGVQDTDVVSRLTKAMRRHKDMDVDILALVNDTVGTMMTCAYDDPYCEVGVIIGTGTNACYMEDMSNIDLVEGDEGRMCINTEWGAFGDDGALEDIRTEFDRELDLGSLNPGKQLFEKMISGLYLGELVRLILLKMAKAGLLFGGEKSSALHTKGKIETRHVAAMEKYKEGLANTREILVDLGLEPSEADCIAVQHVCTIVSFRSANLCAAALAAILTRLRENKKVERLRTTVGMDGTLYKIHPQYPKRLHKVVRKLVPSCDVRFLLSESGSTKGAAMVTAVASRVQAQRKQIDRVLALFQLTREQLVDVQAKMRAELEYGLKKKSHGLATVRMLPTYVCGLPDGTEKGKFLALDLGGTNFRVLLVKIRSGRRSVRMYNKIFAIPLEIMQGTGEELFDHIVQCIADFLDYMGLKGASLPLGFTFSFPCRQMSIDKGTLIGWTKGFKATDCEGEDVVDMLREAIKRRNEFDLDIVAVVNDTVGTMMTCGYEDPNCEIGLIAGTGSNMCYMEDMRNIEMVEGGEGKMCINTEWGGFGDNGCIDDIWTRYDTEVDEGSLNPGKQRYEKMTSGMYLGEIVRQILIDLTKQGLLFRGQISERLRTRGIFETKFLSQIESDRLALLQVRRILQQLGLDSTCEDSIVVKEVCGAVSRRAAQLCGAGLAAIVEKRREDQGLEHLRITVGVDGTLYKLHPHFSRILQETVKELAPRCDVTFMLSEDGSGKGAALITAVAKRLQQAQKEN
Briefly: HKDC1 hexokinase inhibitors, SAR follow-up, biochemical, set 2 (AID 588355). The test is classed as functional.

For test [9], the target named is Melanin-concentrating hormone receptor 1 (Homo sapiens, UniProt Q99705). Briefly: Fluorescence-based counterscreen for antagonists of the G-protein coupled receptor 7 (GPR7): cell-based high throughput dose response assay to identify antagonists of the melanin-concentrating hormone receptor 1 (MCHR1). In kind it is functional.
Sequence of Melanin-concentrating hormone receptor 1 (Q99705 whole entry): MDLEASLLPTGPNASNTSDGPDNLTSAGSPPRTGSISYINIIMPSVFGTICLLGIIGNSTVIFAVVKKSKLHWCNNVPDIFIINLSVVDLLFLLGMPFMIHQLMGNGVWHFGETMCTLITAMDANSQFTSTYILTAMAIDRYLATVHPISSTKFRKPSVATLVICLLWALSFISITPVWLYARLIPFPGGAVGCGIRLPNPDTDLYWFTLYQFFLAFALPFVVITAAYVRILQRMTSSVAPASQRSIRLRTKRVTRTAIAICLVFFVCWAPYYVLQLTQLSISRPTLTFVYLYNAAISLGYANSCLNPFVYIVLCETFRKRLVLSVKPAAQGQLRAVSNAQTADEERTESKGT
Test [10] addresses Voltage-gated inwardly rectifying potassium channel KCNH2 (Homo sapiens, UniProt Q12809). To be noted: Potency.

Each structure is given as a SMILES string. Active and inactive are the calls of the source.

Sequence of Mu-type opioid receptor (P35372 whole entry): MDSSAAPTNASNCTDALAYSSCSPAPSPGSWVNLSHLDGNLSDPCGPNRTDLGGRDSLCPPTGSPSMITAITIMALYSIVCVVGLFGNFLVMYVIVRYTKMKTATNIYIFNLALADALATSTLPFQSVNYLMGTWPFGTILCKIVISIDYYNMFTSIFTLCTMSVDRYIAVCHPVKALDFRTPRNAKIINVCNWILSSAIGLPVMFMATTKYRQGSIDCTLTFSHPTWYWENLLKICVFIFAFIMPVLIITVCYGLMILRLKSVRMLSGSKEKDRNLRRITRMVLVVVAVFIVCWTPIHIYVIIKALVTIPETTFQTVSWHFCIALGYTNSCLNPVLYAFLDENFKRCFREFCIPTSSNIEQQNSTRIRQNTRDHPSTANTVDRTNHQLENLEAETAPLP
Sequence of Voltage-gated inwardly rectifying potassium channel KCNH2 (Q12809 whole entry): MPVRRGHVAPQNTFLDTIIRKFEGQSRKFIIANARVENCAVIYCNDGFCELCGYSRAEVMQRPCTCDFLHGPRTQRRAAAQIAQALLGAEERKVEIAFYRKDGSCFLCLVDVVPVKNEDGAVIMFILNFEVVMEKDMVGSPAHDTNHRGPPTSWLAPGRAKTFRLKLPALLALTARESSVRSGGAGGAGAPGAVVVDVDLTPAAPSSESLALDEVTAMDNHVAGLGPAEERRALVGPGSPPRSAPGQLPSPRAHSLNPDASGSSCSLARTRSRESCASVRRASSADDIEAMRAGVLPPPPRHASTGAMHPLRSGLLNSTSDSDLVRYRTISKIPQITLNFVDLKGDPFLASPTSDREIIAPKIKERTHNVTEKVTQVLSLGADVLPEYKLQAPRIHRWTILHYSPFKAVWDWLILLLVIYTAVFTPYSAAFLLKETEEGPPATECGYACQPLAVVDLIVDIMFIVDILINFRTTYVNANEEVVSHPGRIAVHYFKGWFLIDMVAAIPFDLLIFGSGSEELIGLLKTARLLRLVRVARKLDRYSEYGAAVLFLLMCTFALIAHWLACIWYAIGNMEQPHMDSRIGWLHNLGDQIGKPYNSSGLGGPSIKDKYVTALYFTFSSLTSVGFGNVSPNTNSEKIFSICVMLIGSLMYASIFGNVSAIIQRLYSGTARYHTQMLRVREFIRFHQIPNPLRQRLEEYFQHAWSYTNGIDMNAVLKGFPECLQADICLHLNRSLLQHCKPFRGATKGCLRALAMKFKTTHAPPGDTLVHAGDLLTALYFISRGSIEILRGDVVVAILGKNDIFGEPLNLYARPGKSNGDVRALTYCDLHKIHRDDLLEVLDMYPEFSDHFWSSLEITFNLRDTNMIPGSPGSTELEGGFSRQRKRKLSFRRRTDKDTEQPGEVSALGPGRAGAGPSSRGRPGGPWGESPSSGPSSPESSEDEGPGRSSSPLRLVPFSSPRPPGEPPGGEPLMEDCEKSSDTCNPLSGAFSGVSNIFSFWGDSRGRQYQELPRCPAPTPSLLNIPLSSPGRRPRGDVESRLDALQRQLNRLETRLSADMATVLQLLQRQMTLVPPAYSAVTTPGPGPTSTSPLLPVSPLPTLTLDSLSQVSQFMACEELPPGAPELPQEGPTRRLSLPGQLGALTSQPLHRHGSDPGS

As usually defined, the IC50 is the concentration that gives 50% inhibition. As a reminder, the AC50 is the concentration giving half of the maximal activity seen. On to `COc1ccc(C(=O)NN=C(NS(=O)(=O)c2ccc(C)cc2)c2ccccc2)cc1`, for which, on Protein skinhead-1, the IC50 is > 100 µM (inactive). The concentration at half-maximal activity (AC50) in the test on HeLa was 55.4 µM (active).
`CC(C)OCC(O)CN1CCN(CC(O)COc2ccc3c(c2)OCO3)CC1` (stereo unspecified): the AC50 in the test with Escherichia coli is 62.7 µM (active).
In the case of `COc1ccc2cc(-c3nc4ccccc4n3C)c(=O)oc2c1`, the AC50 in the test on HeLa is 174 µM (active).
For `COc1cc(Cl)ccc1OCc1cc(C(=O)NCC(C)(C)N2CCOCC2)no1`, the concentration at half-maximal activity (AC50) with Escherichia coli is 33.9 µM (active).
Take `CCCn1c(=O)nc(NCCc2ccccc2)[nH]c1=O`: the IC50 in test [1] is > 100 µM (not active); in test [2] it was > 100 µM (not active); in test [3], > 100 µM (inactive); in test [4], > 100 µM (inactive).
By EC50 is commonly meant the concentration giving half of the maximal effect. With `COc1ccc(C2Nc3ccccc3C(=O)N2c2ccc(F)cc2)cc1CSc1ccccn1` (stereo unspecified), the concentration at half-maximal activity (AC50) in test [5] was 48.8 µM (active). Besides, the figures for the EC50 (in test [6]; at Mu-type opioid receptor; in [7]) were > 30.8 µM (inactive), > 92.4 µM (inactive) and > 92.4 µM (inactive), respectively.
Consider `CCCCN1C(=O)C(NC(C)=O)c2cc(Br)ccc21` (stereo unspecified), for which the IC50 was > 43.8 µM (not active) in test [8], > 80 µM (inactive) on Hexokinase-1, > 80 µM (inactive) on Hexokinase HKDC1 and > 43.8 µM (not active) in test [9].
Take `CCOC(=O)c1c(C)[nH]c(C(=O)OC/C(O)=C(\C#N)c2nc3ccccc3[nH]2)c1C`: the EC50 (in test [6]; at Mu-type opioid receptor; in [7]) was > 92.5 µM (inactive) in each case.
For `CC1CC(OC(=O)c2ccccc2O)CC(C)(C)C1` (stereo unspecified) [HOMOSALATE], the AC50 in [10] was 6.31 µM (inconclusive).
